The target of series [1] is streptokinase-induced fibrinolysis (fibrinogen, plasminogen, thrombin system). The series is described as follows: in vitro antifibrinolytic activity, 50% inhibition of streptokinase-induced fibrinolysis. It is filed as biochemical. As to conditions: for Actual amount of compound for 50% inhibition of 6 units of streptokinase: fibrinogen, plasminogen, thrombin plus 6 units of streptokinase. How it is done: Antifibrinolytic activity quantitative assay was conducted by a technique utilizing the procedures described by Christensen, L. E. in J. clin. Invest., volume 28 (1949), page 163, and Wasserman, A. E., et al. in J. Lab. clin. Med., volume 4 (1953), page 812. […] The system consists of fibrinogen, plasminogen, and thrombin, to which is added 6 units of streptokinase which produces a lytic effect. The 50% inhibition studied corresponds to a lytic activity of 3 units of streptokinase. […] The time necessary for the formed plasmin to dissolve a standard fibrin coagulum is determined.
The following table furnishes the data on the in vitro antifibrinolytic activity of the several compounds considered in this specification, expressed as 50% inhibition of 6 units of streptokinase: […]

Another series deals with fibrinolysis. As to conditions: cited from earlier work.
The conditions of series [2]: animal organism, i.e. the subject being treated; cited from earlier work.

Take `NCC1CCC(C(=O)O)CC1` (single isomer, unassigned; isomer 4) [Active-AMCHA isomer, 4-aminomethyl-cyclohexane carboxylic acid]: the “Actual amount of compound for 50% inhibition of 6 units of streptokinase” value in series [1] (in vitro) is 0.2 γ.

Regarding `NCC1CCC(C(=O)O)CC1` (single isomer, unassigned; isomer 4) [Inactive-AMCHA isomer, 4-aminomethyl-cyclohexane carboxylic acid], in series [1] (evaluation of the two separate AMCHA isomers), the “antifibrinolytic activity” value was “practically devoid of any antifibrinolytic activity”. Also, the “Actual amount of compound for 50% inhibition of 6 units of streptokinase” value in series [1] (in vitro) is on record as 30 γ.

On to `NCC1CCC(C(=O)O)CC1` (single isomer, unassigned; isomer 4) [Isomeric AMCHA, comprising 10% active isomer, 4-aminomethyl-cyclohexane carboxylic acid], for which the “Actual amount of compound for 50% inhibition of 6 units of streptokinase” value in series [1] (in vitro) is recorded as 2 γ.

As for `NCCCCCC(=O)O` [EACA, epsilon-aminocaproicacid], the Relative activity in series [1] (in vitro, 50% inhibition of 6 units of streptokinase, relative to EACA = 1) was 1. In addition, the “Actual amount of compound for 50% inhibition of 6 units of streptokinase” value in series [1] (in vitro) was 4 γ. The “antifibrinolytic activity in clinical use” value with fibrinolysis is reported as “acceptable degree of antifibrinolytic activity”. Moreover, the excretion result in series [2] was “so rapidly excreted”.
